Test results taken from patent US6358885B1, “Substituted phenylheterocyclic herbicides” (Mississippi State University, priority 1992, dated 2002).

Experiments:
cheatgrass = test: Test B preemergence/postemergence greenhouse plant response rating 0 to 10; type: in vivo, Bromus secalinus; details: 0 to 10 scale
Procedure, shortened: (§1)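 Planted seeds are treated preemergence with compound dissolved in a non-phytotoxic solvent, while postemergence applications go onto plants of two to eighteen cm. Plants stay in the greenhouse twelve to sixteen days and are then rated visually relative to controls.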

corn = test: as above; type: in vivo, Zea mays; details: 0 to 10 scale
Procedure, shortened: as §1

cotton [1] = test: as above; type: in vivo, Gossypium hirsutum; details: 0 to 10 scale
Procedure, shortened: as §1

lambsquarters [2] = test: as above; type: in vivo, Chenopodium album; details: 0 to 10 scale
Procedure, shortened: as §1

rice = test: as above; type: in vivo, Oryza sativa; details: 0 to 10 scale
Procedure, shortened: as §1

wheat = test: as above; type: in vivo, Triticum aestivum; details: 0 to 10 scale
Procedure, shortened: as §1

wild oat = test: as above; type: in vivo, Avena fatua; details: 0 to 10 scale
Procedure, shortened: as §1

bedstraw = test: Test C preemergence/postemergence greenhouse plant response rating 0 to 100; type: in vivo, Galium aparine; details: POSTEMERGENCE
Procedure, shortened: (§2)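 Compounds in non-phytotoxic solvent went onto sandy loam before emergence (seeded one day earlier) or onto plants at the one-to-four leaf stage. Duck salad was treated via flood water (~2.5 cm, maintained) over silt loam.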

cotton [3] = test: as above; type: in vivo, Gossypium hirsutum; details: POSTEMERGENCE
Procedure, shortened: as §2

crabgrass = test: as above; type: in vivo, Digitaria sanguinalis; details: POSTEMERGENCE
Procedure, shortened: as §2

downy brome = test: as above; type: in vivo, Bromus tectorum; details: POSTEMERGENCE
Procedure, shortened: as §2

giant foxtail = test: as above; type: in vivo, Setaria faberii; details: POSTEMERGENCE
Procedure, shortened: as §2

lambsquarters [4] = test: as above; type: in vivo, Chenopodium album; details: POSTEMERGENCE
Procedure, shortened: as §2

sorghum = test: as above; type: in vivo, Sorghum bicolor; details: POSTEMERGENCE
Procedure, shortened: as §2

sugar beet = test: as above; type: in vivo, Beta vulgaris; details: POSTEMERGENCE
Procedure, shortened: as §2

velvetleaf = test: as above; type: in vivo, Abutilon theophrasti; details: POSTEMERGENCE
Procedure, shortened: as §2

duck salad = test: Test C flood test plant response rating 0 to 100; type: in vivo, Heteranthera limosa
Procedure, shortened: as §2

barnyardgrass = test: Test C flood test plant response rating 0 to 100; type: in vivo, Echinochloa crus-galli
Procedure, shortened: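 Compounds in non-phytotoxic solvent applied preemergence to sandy loam one day after planting, postemergence at the 1–4 leaf stage, or to ~2.5 cm floodwater over silt loam.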

[5] = POSTEMERGENCE section, flood test, Rate 1 g/ha
[6] = Rate 16 g/ha, under POSTEMERGENCE head (flood test species)
[7] = flood test species listed under POSTEMERGENCE, 62 g/ha, 0 to 100 scale

C=CCN1C(=O)COc2cc(F)c(-c3nn4c(c3Cl)CCCC4)cc21 [Compound 33]
40: Plant response rating (0 to 100), Downy Brome (downy brome; Rate 4 g/ha) | Plant response rating, Sorghum (sorghum; 62 g/ha, 0 to 100 scale)
7: Plant response rating, Rice (rice; POSTEMERGENCE, Rate 50 g/ha) | Plant response rating, Wild oat (wild oat; PREEMERGENCE, Rate 50 g/ha)
0: Plant response rating, Corn (corn; PREEMERGENCE, Rate 50 g/ha) | Plant response rating, Cotton (cotton [1]; PREEMERGENCE, Rate 10 g/ha) | Plant response rating, Cotton (cotton [1]; PREEMERGENCE, Rate 50 g/ha) | Plant response rating (0 to 100), Crabgrass (crabgrass; Rate 1 g/ha) | Plant response rating (0 to 100), Crabgrass (crabgrass; Rate 4 g/ha) | Plant response rating (0 to 100), Crabgrass (crabgrass; Rate 16 g/ha) | Plant response rating (0 to 100), Giant foxtail (giant foxtail; Rate 1 g/ha) | Plant response rating (0 to 100), Giant foxtail (giant foxtail; Rate 4 g/ha) | Plant response rating (0 to 100), Sorghum (sorghum; Rate 1 g/ha) | Plant response rating (0 to 100), Duck salad (duck salad; [5]) | Plant response rating (0 to 100), Duck salad (duck salad; POSTEMERGENCE section, flood test, Rate 4 g/ha)
95: Plant response rating (0 to 100), Barnyardgrass (barnyardgrass; [6])
50: Plant response rating (0 to 100), Lambsquarters (lambsquarters [4]; Rate 1 g/ha)
70: Plant response rating, Giant foxtail (giant foxtail; 62 g/ha, 0 to 100 scale) | Plant response rating (0 to 100), Lambsquarters (lambsquarters [4]; Rate 4 g/ha) | Plant response rating (0 to 100), Velvetleaf (velvetleaf; Rate 1 g/ha)
30: Plant response rating (0 to 100), Downy Brome (downy brome; Rate 1 g/ha)
9: Plant response rating, Lambsquarter (lambsquarters [2]; POSTEMERGENCE, Rate 10 g/ha)
100: Plant response rating, Bedstraw (bedstraw; 62 g/ha, 0 to 100 scale) | Plant response rating (0 to 100), Bedstraw (bedstraw; Rate 16 g/ha) | Plant response rating, Cotton (cotton [3]; 62 g/ha, 0 to 100 scale) | Plant response rating (0 to 100), Cotton (cotton [3]; Rate 1 g/ha) | Plant response rating (0 to 100), Cotton (cotton [3]; Rate 4 g/ha) | Plant response rating (0 to 100), Cotton (cotton [3]; Rate 16 g/ha) | Plant response rating Lambsquarters (lambsquarters [4]; 62 g/ha, 0 to 100 scale) | Plant response rating, Sugar beet (sugar beet; 62 g/ha, 0 to 100 scale) | Plant response rating (0 to 100), Sugar beet (sugar beet; Rate 1 g/ha) | Plant response rating (0 to 100), Sugar beet (sugar beet; Rate 4 g/ha) | Plant response rating (0 to 100), Sugar beet (sugar beet; Rate 16 g/ha) | Plant response rating, Velvetleaf (velvetleaf; 62 g/ha, 0 to 100 scale) | Plant response rating (0 to 100), Velvetleaf (velvetleaf; Rate 4 g/ha) | Plant response rating (0 to 100), Velvetleaf (velvetleaf; Rate 16 g/ha) | Plant response rating, Barnyardgrass (barnyardgrass; [7])
5: Plant response rating, Wheat (wheat; POSTEMERGENCE, Rate 50 g/ha) | Plant response rating, Wild oat (wild oat; POSTEMERGENCE, Rate 50 g/ha)
65: Plant response rating (0 to 100), Duck salad (duck salad; [6]) | Plant response rating (0 to 100), Barnyardgrass (barnyardgrass; Rate 4 g/ha, under POSTEMERGENCE head (flood test species))
3: Plant response rating, Cheatgrass (cheatgrass; PREEMERGENCE, Rate 10 g/ha) | Plant response rating, Corn (corn; POSTEMERGENCE, Rate 10 g/ha) | Plant response rating, Rice (rice; PREEMERGENCE, Rate 50 g/ha) | Plant response rating, Wheat (wheat; POSTEMERGENCE, Rate 10 g/ha)
4: Plant response rating, Cheatgrass (cheatgrass; POSTEMERGENCE, Rate 10 g/ha) | Plant response rating, Cheatgrass (cheatgrass; POSTEMERGENCE, Rate 50 g/ha) | Plant response rating, Corn (corn; POSTEMERGENCE, Rate 50 g/ha) | Plant response rating, Wild oat (wild oat; POSTEMERGENCE, Rate 10 g/ha)
20: Plant response rating, Crabgrass (crabgrass; 62 g/ha, 0 to 100 scale) | Plant response rating (0 to 100), Giant foxtail (giant foxtail; Rate 16 g/ha) | Plant response rating (0 to 100), Sorghum (sorghum; Rate 4 g/ha) | Plant response rating (0 to 100), Sorghum (sorghum; Rate 16 g/ha)
6: Plant response rating, Cheatgrass (cheatgrass; PREEMERGENCE, Rate 50 g/ha) | Plant response rating, Rice (rice; POSTEMERGENCE, Rate 10 g/ha)
60: Plant response rating Downy Brome (downy brome; 62 g/ha, 0 to 100 scale) | Plant response rating (0 to 100), Downy Brome (downy brome; Rate 16 g/ha)
80: Plant response rating (0 to 100), Bedstraw (bedstraw; Rate 1 g/ha) | Plant response rating (0 to 100), Lambsquarters (lambsquarters [4]; Rate 16 g/ha) | Plant response rating Duck salad (duck salad; [7])
2: Plant response rating, Wheat (wheat; PREEMERGENCE, Rate 50 g/ha)
35: Plant response rating (0 to 100), Barnyardgrass (barnyardgrass; [5])
90: Plant response rating (0 to 100), Bedstraw (bedstraw; Rate 4 g/ha)
10: Plant response rating, Cotton (cotton [1]; POSTEMERGENCE, Rate 10 g/ha) | Plant response rating, Cotton (cotton [1]; POSTEMERGENCE, Rate 50 g/ha) | Plant response rating, Lambsquarter (lambsquarters [2]; POSTEMERGENCE, Rate 50 g/ha) | Plant response rating, Lambsquarter (lambsquarters [2]; PREEMERGENCE, Rate 50 g/ha)
